Entries after “also recorded” stand apart in the source; their conditions may differ. Where no end group is shown, it is not given here.
Tests used:
other GPCRs = assay: Specificity assay in more than twenty other GPCR stable cell lines; format: cell-based
Protocol: Several stable cell lines were generated to examine the specificity of the compounds. First, the activity of the compounds in cell line expressing the reporter gene alone were tested. Since the reporter gene cell line was not transfected with NMU-2R expression vector, compounds that can activate the reporter gene expression in this cell line were not NMU-2R agonists. In addition, the compounds in cell lines expressing other GPCRs were tested. More than twenty different GPCR stable cell lines were generated for the specificity assay.

NMU-1R = biological target: T1, NMU-1R (Homo sapiens, UniProt Q9HB89); assay: Activity for NMU-1R; format: cell-based
T1 sequence (Q9HB89 1-426): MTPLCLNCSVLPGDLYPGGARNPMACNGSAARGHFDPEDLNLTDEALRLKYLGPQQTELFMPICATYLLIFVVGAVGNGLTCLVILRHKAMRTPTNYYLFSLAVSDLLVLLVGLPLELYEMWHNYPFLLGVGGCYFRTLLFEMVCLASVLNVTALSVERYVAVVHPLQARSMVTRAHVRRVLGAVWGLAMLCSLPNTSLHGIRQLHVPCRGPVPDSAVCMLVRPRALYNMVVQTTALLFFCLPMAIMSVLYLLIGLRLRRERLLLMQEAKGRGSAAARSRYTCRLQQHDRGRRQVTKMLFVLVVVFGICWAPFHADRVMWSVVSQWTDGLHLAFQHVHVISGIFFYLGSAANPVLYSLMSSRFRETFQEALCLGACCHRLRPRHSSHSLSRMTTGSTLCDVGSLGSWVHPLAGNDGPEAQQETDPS

human NMU-2R [1] = biological target: T2, human NMU-2R (Homo sapiens, UniProt Q9GZQ4); settings: literature refs 5-7, 15-20; cited from earlier work
T2 construct: expressed in transfected cells
T2 sequence (Q9GZQ4 whole entry): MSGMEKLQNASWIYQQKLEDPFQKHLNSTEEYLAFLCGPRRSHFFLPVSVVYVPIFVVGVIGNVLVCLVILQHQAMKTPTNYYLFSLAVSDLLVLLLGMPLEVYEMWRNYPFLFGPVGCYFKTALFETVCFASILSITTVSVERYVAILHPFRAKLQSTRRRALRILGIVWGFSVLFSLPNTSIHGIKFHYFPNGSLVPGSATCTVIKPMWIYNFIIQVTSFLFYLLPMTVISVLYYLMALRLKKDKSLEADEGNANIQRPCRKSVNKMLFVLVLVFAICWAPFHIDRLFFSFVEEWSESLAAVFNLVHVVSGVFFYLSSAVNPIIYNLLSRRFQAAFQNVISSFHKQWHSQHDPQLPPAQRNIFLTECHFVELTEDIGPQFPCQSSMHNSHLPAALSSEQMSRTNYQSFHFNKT

human NMU-2R [2] = biological target: T2, human NMU-2R; assay: NMU-2R reporter gene (luciferase) assay in HEK-293/NMU-2R/3MCS/Luci cells; format: cell-based; settings: for activation of NMU-2R, expression of reporter gene luciferase: in the presence of forskolin 5 μmol/L
Protocol: Establishment of stable cell line: HEK-293 cells were maintained in DMEM with 10% FBS (Gibco) and 1% non-essential amino acid at 37° C. […] Twenty-four hours after transfection, cell culture medium was replaced with fresh medium containing G418 at final concentration of 800 mg/L. Stable cell line was generated using limited dilution based on the luciferase activity in the presence of NmU and forskolin (5 μmol/L). The stable cell line was named HEK-293/NMU-2R/3MCS/Luci cells. Luciferase assay and screening for NMU-2R agonists: The luciferase activity was measured according to the protocol from Promega. Briefly, 100 μL of HEK-293/NMU-2R/3MCS/Luci cells at 4×10^4 cells/mL were added into each well of white 96 -well plate (flat, clear bottom, Costar). The cells were maintained in DMEM containing 10% FBS (Gibco) and 1% non-essential amino acid, and incubated at 37° C., 5% CO2 overnight. […] Finally, 110 μL of luciferase substrate Bright GloTM (Promega) was added into each well. Luciferase activity was measured using […] (Molecular Device).

activity for NMU-1R (NMU-1R) | induction of reporter gene expression (human NMU-2R [2]; NmU alone, without forskolin) | Compound | effect on other GPCRs (other GPCRs) | potency of receptor activation (human NMU-2R [1]) | activation of NMU-2R, expression of reporter gene luciferase (human NMU-2R [2])
no activity | – | C[C@@H]1O[C@@H](OC[C@H]2O[C@@H](Oc3c(-c4ccc(O)c(O)c4)oc4cc(O)cc(O)c4c3=O)[C@H](O)[C@@H](O)[C@@H]2O)[C@H](O)[C@H](O)[C@H]1O [Rutin] | no activity | – | –
– | only slightly induced | Neuromedin U (FRVDEEFQSPFASQSRGYFLFRPRN; ends and bridges not checked; UniProt P48645 142-166, looked up) [NmU, peptide hormone, natural ligand for NMU-2R] | – | nanomolar range | best response; also recorded: significantly increased
– | – | COc1ccc([C@@H]2CC(=O)c3c(O)cc(O[C@@H]4O[C@H](CO[C@@H]5O[C@@H](C)[C@H](O)[C@@H](O)[C@H]5O)[C@@H](O)[C@H](O)[C@H]4O)cc3O2)cc1O [Hesperidin] | – | – | potential NMU-2R agonists
– | – | COc1ccc(-c2oc3c(CC=C(C)C)c(O[C@@H]4O[C@H](CO)[C@@H](O)[C@H](O)[C@H]4O)cc(O)c3c(=O)c2O[C@@H]2O[C@@H](C)[C@H](O)[C@@H](O)[C@H]2O)cc1 [Icariin] | – | – | potential NMU-2R agonists

Source: patent US20060063702A1, “Neuromedin U 2 receptor agonists and uses thereof” (priority 2004, published 2006)
